# Molecular target: T1, GR (Homo sapiens, UniProt P04150)
# T1 sequence (P04150 1-777): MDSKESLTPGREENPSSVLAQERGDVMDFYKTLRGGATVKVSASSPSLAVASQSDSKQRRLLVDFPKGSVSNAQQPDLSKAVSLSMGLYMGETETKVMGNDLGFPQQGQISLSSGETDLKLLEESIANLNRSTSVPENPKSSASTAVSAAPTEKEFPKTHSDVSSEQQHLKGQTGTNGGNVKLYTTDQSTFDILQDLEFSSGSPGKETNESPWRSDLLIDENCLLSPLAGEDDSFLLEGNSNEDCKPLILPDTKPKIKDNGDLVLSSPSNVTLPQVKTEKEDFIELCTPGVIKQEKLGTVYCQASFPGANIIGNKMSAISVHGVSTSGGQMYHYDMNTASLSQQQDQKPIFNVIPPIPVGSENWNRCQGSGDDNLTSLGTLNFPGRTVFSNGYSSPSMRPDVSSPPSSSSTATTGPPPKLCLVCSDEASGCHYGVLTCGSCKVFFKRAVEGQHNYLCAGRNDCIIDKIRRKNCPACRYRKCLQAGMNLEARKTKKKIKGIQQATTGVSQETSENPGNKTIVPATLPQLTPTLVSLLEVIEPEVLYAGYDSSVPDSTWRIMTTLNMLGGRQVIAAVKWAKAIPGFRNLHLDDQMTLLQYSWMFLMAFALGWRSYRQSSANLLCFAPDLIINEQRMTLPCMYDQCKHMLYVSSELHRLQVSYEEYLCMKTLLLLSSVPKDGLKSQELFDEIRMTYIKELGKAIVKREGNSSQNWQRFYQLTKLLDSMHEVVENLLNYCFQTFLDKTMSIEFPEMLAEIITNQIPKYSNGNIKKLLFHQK
# Assay: hGR functional assay: CAT activity in CV-1 cells cotransfected with pRShGR alpha (or mutant) and pMTVCAT
# Type: cell-based
# Parameters: The expression vector linking the RSV LTR to full length hGR cDNA (pRShGR alpha) was designed to obtain high levels of expression; expressed in transfected cells; host or cells: CV-1 monkey kidney cells, cotransfected with pMTVCAT
# Details: 100 nM steroid, cotransfected CV-1 cells
# Excerpt: The assay system and strategy used to study the expression of functional hGR from the cloned cDNA (See Experimental Section I) is shown in FIG. 11. In these experiments, a glucocorticoid-responsive promoter/enhancer element linked to a reporter gene was introduced into a receptor-negative cell. […] For our assay, we chose to use the MTV LTR fused to the sequence coding for chloramphenicol acetyltransferase (CAT) (EC2.3.1.28). […] Cotransfection of pMTVCAT (or pGMCAT) with a receptor expression plasmid provides functional receptors that allow induction of CAT activity upon treatment of the transfected cells with glucocorticoid hormone. In addition, biochemical studies such as steroid binding activity and Western blot analysis of the expressed receptors can be performed simultaneously.
# The cells are then cultured in the presence or absence of hormone. CV-1 cells were used to monitor induction of CAT activity, and COS cells were used to measure steroid-binding capacity and the expression of hGR protein.
# CAT assays were performed as indicated in Experimental Procedures (See Section II. F.). C, chloramphenicol; AC, 3-acetylchloramphenicol.
# The levels of CAT activity were plotted as percentages of the maximal response observe in a particular experiment.
# Each plasmid preparation used for transfection was purified using two consecutive CsCl-EtBr equilibrium gradients. […]
smiles,measurement,value
C[C@]12CC[C@@H]3c4ccc(O)cc4CC[C@H]3[C@@H]1CC[C@@H]2O [oestradiol],induction of CAT activity by steroid,failed to induce CAT activity
